Drawing on patent publication US7482462B2, “Acylsulfonamides as inhibitors of steroid sulfatase” (priority 2001, dated 2009), this text covers IC50 for 1 compound.

In this assay the target is T1, human steroid sulfatase (Homo sapiens, UniProt P08842).
T1 construct: Human placenta is obtained freshly after delivery; from tissue; host or cells: human placenta (microsomes, Triton X-100 extract, column-purified)
T1 sequence (P08842 22-583): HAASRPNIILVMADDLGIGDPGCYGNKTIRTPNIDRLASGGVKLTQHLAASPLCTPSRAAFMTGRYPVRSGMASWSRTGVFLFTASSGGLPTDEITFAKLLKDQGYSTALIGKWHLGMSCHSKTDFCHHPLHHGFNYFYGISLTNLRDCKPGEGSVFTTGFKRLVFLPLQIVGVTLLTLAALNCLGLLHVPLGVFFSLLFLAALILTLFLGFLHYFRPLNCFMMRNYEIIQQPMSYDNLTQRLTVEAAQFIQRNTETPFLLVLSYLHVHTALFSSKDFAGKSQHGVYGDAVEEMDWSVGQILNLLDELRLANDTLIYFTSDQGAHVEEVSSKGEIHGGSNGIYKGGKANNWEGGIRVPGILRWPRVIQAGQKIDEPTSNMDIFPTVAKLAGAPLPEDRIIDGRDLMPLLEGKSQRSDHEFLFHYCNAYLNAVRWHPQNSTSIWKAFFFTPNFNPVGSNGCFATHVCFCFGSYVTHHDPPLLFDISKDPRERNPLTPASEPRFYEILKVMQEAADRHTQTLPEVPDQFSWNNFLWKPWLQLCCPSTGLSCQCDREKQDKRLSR
As to the kind of experiment: Assay of Human Steroid Sulfatase (purified from placenta, 4-methylumbelliferyl sulfate cleavage, fluorescence). The format is biochemical. Conditions: reference compound, determined in parallel to test compounds; substrate 4-methylumbelliferyl sulfate, 37° C., 1 hour. On the procedure:
For storage, the material is frozen at −70° C.
The activity is recovered in the flow-through.
Plates are incubated at 37° C. for 1 hour.
Relative IC50 values are defined as follows: […]

One may read the IC50 as the midpoint of a concentration-inhibition curve. Read a low IC50 as greater potency in that assay. `CC12CCC3c4ccc(OS(N)(=O)=O)cc4CCC3C1CCC2=O` (stereo not shown) [estrone sulfamate, Estrone sulfamate] had an IC50 of roughly 60 nM.
